Earlier results in patent US20250161231A1, “LUTEIN FOR USE IN INHIBITING MAST CELL DEGRANULATION” (N.V. NUTRICIA, priority 2022, published 2025).

System: human mast cells
Conditions: literature, Int Arch Allergy Immunol 113, 335-336, 1997

CC1=C(/C=C/C(C)=C/C=C/C(C)=C/C=C/C=C(C)/C=C/C=C(C)/C=C/C2=C(C)CCCC2(C)C)C(C)(C)CCC1 [beta-carotene]
inhibition of histamine release from human mast cells: dose-dependent inhibition
